Laboratory results: ChEMBL document CHEMBL5252541, “Repurposing antipsychotic drugs into antifungal agents: Synergistic combinations of azoles and bromperidol derivatives in the treatment of various fungal infections” (Eur J Med Chem, 2017)
Converted amounts (≈) assume the structure as drawn.

Legend:
Candida albicans [1] = test: Synergistic antifungal activity against Candida albicans ATCC MYA-1003 assessed as voriconazole MIC measured after 48 hrs by checkboard based microplate reader analysis; format: functional
Candida albicans [2] = test: Synergistic antifungal activity against Candida albicans ATCC MYA-1237 assessed as voriconazole MIC measured after 48 hrs by checkboard based microplate reader analysis; format: functional
Candida albicans [3] = test: Antifungal activity against Candida albicans ATCC 64124 measured after 48 hrs by broth microdilution analysis; format: functional
Candida albicans [4] = test: Antifungal activity against Candida albicans ATCC 10231 measured after 48 hrs by broth microdilution analysis; format: functional
Candida albicans [5] = test: Antifungal activity against Candida albicans ATCC MYA-1237 measured after 48 hrs by broth microdilution analysis; format: functional
Nakaseomyces glabratus [6] = test: Antifungal activity against Candida glabrata ATCC 2001 measured after 48 hrs by broth microdilution analysis; format: functional
Candida albicans [7] = test: Antifungal activity against Candida albicans ATCC MYA-1003 measured after 48 hrs by broth microdilution analysis; format: functional
Candida albicans [8] = test: Antifungal activity against Candida albicans ATCC MYA-2876 measured after 48 hrs by broth microdilution analysis; format: functional
Candida albicans [9] = test: Antifungal activity against Candida albicans ATCC 90819 measured after 48 hrs by broth microdilution analysis; format: functional
Aspergillus terreus [10] = test: Antifungal activity against Aspergillus terreus ATCC MYA-3633 measured after 48 hrs by broth microdilution analysis; format: functional
Candida albicans [11] = test: Synergistic antifungal activity against Candida albicans ATCC MYA-2310 assessed as voriconazole MIC measured after 48 hrs by checkboard based microplate reader analysis; format: functional
Candida albicans [12] = test: Synergistic antifungal activity against Candida albicans ATCC MYA-2876 assessed as voriconazole MIC measured after 48 hrs by checkboard based microplate reader analysis; format: functional
Nakaseomyces glabratus [13] = test: Synergistic antifungal activity against Candida glabrata ATCC 2001 assessed as voriconazole MIC measured after 48 hrs by checkboard based microplate reader analysis; format: functional
Aspergillus terreus [14] = test: Synergistic antifungal activity against Aspergillus terreus ATCC MYA-3633 assessed as voriconazole MIC measured after 48 hrs by checkboard based microplate reader analysis; format: functional
Candida albicans [15] = test: Additive antifungal activity against Candida albicans ATCC MYA-1237 assessed as fractional inhibitory concentration index measured for 72 hrs in presence of voriconazole; format: functional
[16] = Cytotoxicity against HEK293 cells assessed as cell survival by XTT assay; format: toxicity, cell-based; conditions: human, read-out: Activity
[17] = Cytotoxicity against human BEAS-2B cells assessed as cell survival by XTT assay; format: toxicity, cell-based; conditions: read-out: Activity
[18] = Cytotoxicity against mouse J774.A1 cells assessed as cell survival by XTT assay; format: toxicity, cell-based; conditions: read-out: Activity
HEK293 [19] = test: Cytotoxicity against HEK293 cells assessed as cell survival up to 4 microg/ml by XTT assay; format: toxicity, cell-based; conditions: human, dose < 4 µg/ml
BEAS-2B [20] = test: Cytotoxicity against human BEAS-2B cells assessed as cell survival up to 4 microg/ml by XTT assay; format: toxicity, cell-based; conditions: dose < 4 µg/ml
J774.A1 [21] = test: Cytotoxicity against mouse J774.A1 cells assessed as cell survival up to 4 microg/ml by XTT assay; format: toxicity, cell-based; conditions: dose < 4 µg/ml
[22] = Cytotoxicity against mouse J774.A1 cells assessed as cell survival at 8 microg/ml by XTT assay; format: toxicity, cell-based; conditions: J774.A1 cells, at 8 µg/mL, read-out: Activity
HEK293 [23] = test: Cytotoxicity against HEK293 cells assessed as cell survival at 4 to 16 microg/ml by XTT assay; format: toxicity, cell-based; conditions: human, dose 4-16 µg/ml
J774.A1 [24] = test: Cytotoxicity against mouse J774.A1 cells assessed as cell survival at 4 to 16 microg/ml by XTT assay; format: toxicity, cell-based; conditions: dose 4-16 µg/ml
BEAS-2B [25] = test: Cytotoxicity against human BEAS-2B cells assessed as cell survival at 4 to 16 microg/ml by XTT assay; format: toxicity, cell-based; conditions: dose 4-16 µg/ml
HEK293 [26] = test: Cytotoxicity against HEK293 cells assessed as cell survival at 8 microg/ml by XTT assay; format: toxicity, cell-based; conditions: human, dose 8 µg/ml
Candida albicans [27] = test: microbe, parasite or virus in culture; conditions: ATCC 64124, 48 h
Description: Synergistic antifungal activity against Candida albicans ATCC 64124 assessed as voriconazole MIC measured after 48 hrs by checkboard based microplate reader analysis

Candida albicans [28] = test: microbe, parasite or virus in culture; conditions: ATCC 10231, 48 h
Description: Synergistic antifungal activity against Candida albicans ATCC 10231 assessed as voriconazole MIC measured after 48 hrs by checkboard based microplate reader analysis

Candida albicans [29] = test: microbe, parasite or virus in culture; conditions: ATCC 90819, 48 h
Description: Synergistic antifungal activity against Candida albicans ATCC 90819 assessed as voriconazole MIC measured after 48 hrs by checkboard based microplate reader analysis

Candida albicans [30] = test: Synergistic antifungal activity against Candida albicans ATCC MYA-1237 assessed as posaconazole MIC measured after 48 hrs by checkboard based microplate reader analysis; format: functional
Candida albicans [31] = test: Synergistic antifungal activity against Candida albicans ATCC 64124 assessed as posaconazole MIC measured after 48 hrs by checkboard based microplate reader analysis; format: functional
Candida albicans [32] = test: Synergistic antifungal activity against Candida albicans ATCC 10231 assessed as posaconazole MIC measured after 48 hrs by checkboard based microplate reader analysis; format: functional
Nakaseomyces glabratus [33] = test: Synergistic antifungal activity against Candida glabrata ATCC 2001 assessed as posaconazole MIC measured after 48 hrs by checkboard based microplate reader analysis; format: functional
Candida albicans [34] = test: Synergistic antifungal activity against Candida albicans ATCC MYA-1003 assessed as posaconazole MIC measured after 48 hrs by checkboard based microplate reader analysis; format: functional
Candida albicans [35] = test: Synergistic antifungal activity against Candida albicans ATCC MYA-2310 assessed as posaconazole MIC measured after 48 hrs by checkboard based microplate reader analysis; format: functional
Candida albicans [36] = test: Synergistic antifungal activity against Candida albicans ATCC MYA-2876 assessed as posaconazole MIC measured after 48 hrs by checkboard based microplate reader analysis; format: functional
Candida albicans [37] = test: Synergistic antifungal activity against Candida albicans ATCC 90819 assessed as posaconazole MIC measured after 48 hrs by checkboard based microplate reader analysis; format: functional
Aspergillus terreus [38] = test: Synergistic antifungal activity against Aspergillus terreus ATCC MYA-3633 assessed as posaconazole MIC measured after 48 hrs by checkboard based microplate reader analysis; format: functional
Candida albicans [39] = test: Additive antifungal activity against Candida albicans ATCC MYA-1237 assessed as fractional inhibitory concentration index measured for 72 hrs in presence of posaconazole; format: functional
[40] = Cytotoxicity against HEK293 cells assessed as cell survival at 16 microg/ml by XTT assay; format: toxicity, cell-based; conditions: human, at 16 µg/mL, read-out: Activity
[41] = Cytotoxicity against mouse J774.A1 cells assessed as cell survival at 16 microg/ml by XTT assay; format: toxicity, cell-based; conditions: at 16 µg/mL, read-out: Activity

Question: Which MIC (Candida albicans [1]) does the source give for `C[C@@H](c1ncncc1F)[C@](O)(Cn1cncn1)c1ccc(F)cc1F` [VORICONAZOLE] here?
Answer: 2 µg/mL

Question: What about the MIC (Candida albicans [2]) of the same compound?
Answer: > 32 µg/mL

Question: What about the MIC (Candida albicans [3]) of the same compound?
Answer: > 32 µg/mL

Question: And the MIC (Candida albicans [4])?
Answer: 1 µg/mL (≈ 2.86 µM)

Question: And the MIC (Candida albicans [5])?
Answer: > 32 µg/mL

Question: What about the MIC (Nakaseomyces glabratus [6]) of the same compound?
Answer: > 32 µg/mL

Question: What about the MIC (Candida albicans [7]) of the same compound?
Answer: > 32 µg/mL

Question: What about the MIC (Candida albicans [8]) of the same compound?
Answer: > 32 µg/mL

Question: And the MIC (Candida albicans [9])?
Answer: > 32 µg/mL

Question: And the MIC (Aspergillus terreus [10])?
Answer: 0.25 µg/mL (≈ 0.716 µM)

Question: And the MIC (Candida albicans [11])?
Answer: > 32 µg/mL

Question: And the MIC (Candida albicans [12])?
Answer: > 32 µg/mL

Question: And the MIC (Nakaseomyces glabratus [13])?
Answer: > 32 µg/mL

Question: And the MIC (Aspergillus terreus [14])?
Answer: 0.5 µg/mL

Question: What about the “fractional inhibitory concentration index (FICI)” value (Candida albicans [15]) of the same compound?
Answer: 2

Question: And the viability [16]?
Answer: > 100%

Question: And the viability [17]?
Answer: > 100%

Question: And the viability [18]?
Answer: > 100%

Question: And the Activity (HEK293 [19])?
Answer: Non-Toxic

Question: And the Activity (BEAS-2B [20])?
Answer: Non-Toxic

Question: And the Activity (J774.A1 [21])?
Answer: Non-Toxic

Question: And the viability at 8 microg/ml [22]?
Answer: 100%

Question: And the Activity (HEK293 [23])?
Answer: Non-Toxic

Question: What about the Activity (J774.A1 [24]) of the same compound?
Answer: Non-Toxic

Question: And the Activity (BEAS-2B [25])?
Answer: Non-Toxic

Question: And the Activity (HEK293 [26])?
Answer: Non-Toxic

Question: What about the MIC (Candida albicans [27]) of the same compound?
Answer: 4 µg/mL (≈ 11.5 µM)

Question: What about the MIC (Candida albicans [28]) of the same compound?
Answer: 0.25 µg/mL (≈ 0.716 µM)

Question: And the MIC (Candida albicans [29])?
Answer: 0.25 µg/mL (≈ 0.716 µM)

Question: Which results are given for `CC[C@@H]([C@H](C)O)n1ncn(-c2ccc(N3CCN(c4ccc(OC[C@@H]5CO[C@@](Cn6cncn6)(c6ccc(F)cc6F)C5)cc4)CC3)cc2)c1=O` [POSACONAZOLE]?
Answer: MIC (Candida albicans [30]): 0.5 µg/mL; MIC (Candida albicans [3]): > 32 µg/mL; MIC (Candida albicans [4]): 1 µg/mL (≈ 1.43 µM); MIC (Candida albicans [31]): 2 µg/mL; MIC (Candida albicans [32]): 0.125 µg/mL; MIC (Candida albicans [5]): > 32 µg/mL; MIC (Nakaseomyces glabratus [6]): > 32 µg/mL; MIC (Candida albicans [7]): > 32 µg/mL; MIC (Candida albicans [8]): > 32 µg/mL; MIC (Candida albicans [9]): > 32 µg/mL; MIC (Aspergillus terreus [10]): 0.25 µg/mL (≈ 0.357 µM); MIC (Nakaseomyces glabratus [33]): 0.25 µg/mL; MIC (Candida albicans [34]): 0.5 µg/mL; MIC (Candida albicans [35]): 0.5 µg/mL; MIC (Candida albicans [36]): > 32 µg/mL; MIC (Candida albicans [37]): 0.25 µg/mL; MIC (Aspergillus terreus [38]): 0.25 µg/mL; fractional inhibitory concentration index (FICI) (Candida albicans [39]): 2; viability [16]: > 100%; viability [17]: > 100%; viability [18]: > 100%; Activity (HEK293 [19]): Non-Toxic; Activity (BEAS-2B [20]): Non-Toxic; Activity (J774.A1 [21]): Non-Toxic; viability at 8 microg/ml [22]: 80%; viability at 16 microg/ml [40]: 45%; viability at 16 microg/ml [41]: 46%; Activity (HEK293 [26]): Non-Toxic
